The conditions of data set [1]: used as an antiepileptic drug during pregnancy; cited from earlier work.
Data set [2] concerns MDA-MB468 breast carcinoma cells. Nature of the data set: MTT cell viability assay. Type of data set: cell-based, Human. The procedure:
(§1) Human MDA-MB468, MDA-MB453 and SKBR3 breast carcinoma cells and A431 squamous cell carcinoma cells were maintained in Dulbecco's modified Eagle's medium (DMEM, BioWhittaker, Verviers, Belgium) supplemented with 10% heat inactivated fetal bovine serum (FBS), 2 mM L-glutamine, 100 units/ml penicillin, and 100 μg/ml streptomycin.
(§2) Tumor cells were seeded in 96 well plates at a density of 1×10^4 cells/well in normal growth medium. […] Control cells were grown in the absence of valproic acid or antibodies. 10 μl of 10 mg/ml 3-(4,5-dimethylthiazole-2-yl)-2,5 diphenyltetrazolium bromide (MTT) (Sigma, Deisenhofen, Germany) in PBS were added to each well and the cells were incubated for another 3 h. Cells were lysed by the addition of 90 μl of lysis buffer (20% SDS in 50% dimethyl formamide, pH 4.7). After solubilization of the formazan product, the absorption at 590 nm was determined in a microplate reader (Dynatech, Denkendorf, Germany) and the relative amount of viable cells in comparison to cells cultured without the addition of valproic acid or antibodies was calculated.

For data set [3], the system named is MDA-MB453 breast carcinoma cells. Nature of the data set: MTT cell viability assay. The data set is classed as cell-based, Human. To be noted: 70 h. The procedure:
as §1, §2

In data set [4] the test system is HCT-116 colon cancer cells. Nature of the data set: cell counts and propidium iodide cell cycle/apoptosis analysis. The data set is classed as cell-based, human. The procedure:
For FIG. 14 cells were seeded in 6 well culture dishes at 100000 cells/well. The day after, they were treated with the indicated drugs (5-FU: 2 μM 5-Fluoruracile; AD: 20 ng/ml adriamycin; IT: 3 μM irinothecan), and then cultured for further 48 hours. Cells were counted at 24 h and 48 h after treatment. All of the assays have been performed in triplicate.
For FIG. 15 cells were seeded in 6 well culture dishes at 100000 cells/well. […] (A), results of triplicate counts of viable cells. (B), cells were stained with propidium iodide after permeabilization and fixation. Results of a cell cycle analysis are presented as percentage (%) of cells in G1, S, G2+M, and sub-G1 (apoptotic cells): all of the assays have been performed in triplicate.
(A), results of triplicate counts of viable cells. (B), cells were stained with propidium iodide after permeabilization and fixation. Results of a cell cycle analysis are presented as percentage (%) of apoptotic cells: all of the assays have been performed in triplicate.
For FIG. 17 cells were seeded in 10 cm culture dishes (1 million cells/dish). […] The day after, they were treated with the following drugs: 5-FU (panel A), AD (B), or IT (C), at the concentrations as indicated for FIG. 14. Cells were analyzed at the day of treatment, 24 h, and 48 h following treatment. Upper panels, results of triplicate counts of viable cells. Lower panels, cells were stained with propidium iodide after permeabilization and fixation. Results of a cell cycle analysis are presented as percentage (%) of apoptotic cells: all of the assays have been performed in triplicate.

The test system of data set [5] is primary AML blasts from AML patients. Nature of the data set: ex vivo differentiation, viability and apoptosis of leukemic blasts. Type of data set: cell-based, human. To be noted: for myeloid differentiation: M0, M2 and M4 FAB subtypes. The procedure:
Each point represents the mean of a set of data determined in triplicate (Example 15). VPA may cause synergistic therapeutic responses.
Cases were classified according to the French-American-British (FAB) classification (Bennett et al., Ann Intern Med 103, 1985). Cytogenetic analysis and RT-PCR tests were performed to rule out the presence of the APL associated fusion genes according to standard methods as described (Mandelli et al., Blood 90, 1997; Mancini et al., Br J Haematol. 91, 1995; Grimwade et al., Blood 90, 1999).

The subject of data set [6] is Renca-lacZ cells. Nature of the data set: in vivo mouse model of renal carcinoma lung metastasis (X-Gal staining). More on the design: species or system Balb/c mice. Particulars: 2×400 mg/kg/day i.p. Na-VPA; Renca-lacZ cells into tail vein; vs glucose solution. The text has this:
Mouse renal carcinoma cells (Renca) were established from a spontaneously arising kidney tumor in Balb/c mice. These cells efficiently form tumors in the lung upon transplantation into Balb/c mice through the tail vein and the tumorigenic properties of Renca cells have been well established (Murphy, et al., 1973, J. Natl. Cancer Inst., 50: 1013-1025; Hrushesky et al., 1973, J. Surg. Res., 15: 327-332; Williams et al., 1981, Res. Comm. Chem. Pathol. Pharmacol., 34: 345-349). The circulating tumor cells in this model setting represent a mimicry of situations frequently found in tumor patients when residual tumor cells are circulating in a patient's body and finally invade and home in various organs to grow as metastatic tumors. The inhibition of such minimal residual tumor diseases is one of the major aims of modern tumor therapy and can be experimentally examined in the in vivo model used here. Renca cells and the transfected cell clone Renca-lacZ (encoding for β-galactosidase) were grown in RPMI-1640 supplemented with 10% fetal calf serum (FCS). For metastasis formation in recipient mice […] Renca-lacZ cells in 100 μl PBS were injected into the lateral tail vein of female Balb/c mice at 4 to 6 weeks of age. […] Metastatic surface nodules were analyzed under a dissecting microscope and representative pictures were taken and are presented in FIG. 9.

As to `CCCC(CCC)C(=O)O` [VPA, 2-propylpentanoic acid], in data set [1], the “birth defects (neural tube closure defects and other malformations) in born children” value is reported as “a few percent”. Also, the “cell viability, combination treatment” value was “synergistic reduction of cell viability” in data set [2] (3 mM VPA + 2 μg/ml c225, 70 h) and “synergistic reduction of cell viability” in data set [3] (3 mM VPA + 2 μg/ml Herceptin). Besides, the cell viability entry in data set [2] (single reagent, 70 h, valproic acid 3 mM, c225 2 μg/ml) is listed as “inhibit the viability”; in data set [3] (single reagent, valproic acid 3 mM, Herceptin 2 μg/ml), “inhibit the viability”. Moreover, the cell growth result in data set [4] (5-FU 2 μM in combination with VPA 1 mM, 72 hours) is listed as “strong synergistic reduction in cell growth”. Also, the apoptosis result in data set [4] (5-FU 2 μM in combination with VPA 1 mM, 72 hours, vs 5-FU alone) is “much higher levels of apoptosis”; in data set [4] (VPA 1 mM pre-treatment three days, then VPA+AD (20 ng/ml) up to 48 hours) it was “dramatic synergistic enhancement of apoptosis”; in data set [4] (VPA 1 mM pre-treatment three days, then VPA+FU (2 μM) up to 48 hours) it was “dramatic synergistic enhancement of apoptosis”; in data set [4] (VPA 1 mM pre-treatment three days, then VPA+IT (3 μM) up to 48 hours) it was “dramatic synergistic enhancement of apoptosis”; in data set [4] (VPA alone, up to one week), “did not induce apoptosis”. In data set [4] (VPA alone, up to one week), the cell number result is “only minimally affected cell number”. Further, the myeloid differentiation result in data set [5] (VPA as a single agent) is “partial myeloid differentiation”; in data set [5] (VPA in combination with RA), “complete and thus synergistic myeloid differentiation”. In addition, the “positive cells in the NBT dye reduction assay” value in data set [5] (VPA in combination with RA) was “up to 65%”. Further, the “myeloid differentiation of blasts from primary or relapsed AMLs” value in data set [5] (VPA in combination with RA, 3 and 2 cases studied) was “induced myeloid differentiation”. In data set [5] (combination of VPA plus RA compared to VPA or RA alone), the induction of apoptosis result is listed as “strongly enhanced, often in a synergistic fashion”. In addition, the “apoptosis of AML blasts (FACS, propidium-iodide)” value in data set [5] (single agent, 4 cases tested) is “effective in inducing apoptosis”. Besides, the “formation of lung metastasis (number and size of metastatic nodules)” value in data set [6] is reported as “effectively inhibited the formation of lung metastasis”.
